# According to patent US20090069324A1, “CHEMICAL INHIBITORS OF BFL-1 AND RELATED METHODS” (The Burnham Institute, priority 2007, published 2009):
# “And” between values parts separate entries of the source, which are not always exact repeats. Equal values may be shown once. “Also recorded” adds a separate entry of the source.
# How the values were obtained:
# [1] = target: T1, Bcl-2 (Homo sapiens, UniProt P10415); experiment: Bcl-2/FITC-Bim FPA selectivity assay; format: binding
# T1 construct: lacking their C-terminal transmembrane domains (approximately last 20 amino-acids); GST (N); made in house; host or cells: XL-1 Blue cells (E. coli), pGEX 4T-1
# T1 sequence (P10415 1-218 limits assumed): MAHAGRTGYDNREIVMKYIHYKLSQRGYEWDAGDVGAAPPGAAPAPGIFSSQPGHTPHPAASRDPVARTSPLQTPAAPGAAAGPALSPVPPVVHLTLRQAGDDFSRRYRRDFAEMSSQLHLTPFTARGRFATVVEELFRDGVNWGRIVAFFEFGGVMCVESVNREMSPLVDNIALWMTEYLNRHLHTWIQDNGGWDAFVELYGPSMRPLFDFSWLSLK
# Excerpt: (§1) This example illustrates assays for determining the selectivity of chemical inhibitors for Bfl-1. Bfl-1, as with other Bcl-2 family proteins, participates in a very complex and intricate network of interactions with other representatives of the family. Therefore, two selectivity assays involving family members Bcl-2 and Bcl-B were developed.
# (§2) For Bcl-2, a FITC-conjugated peptide corresponding to the BH3 domain of Bim was used. For Bcl-B, a FITC-conjugated peptide corresponding to a fragment of the TR3/Nur77 protein shown to bind this member of the Bcl-2 family was used.
# (§3) Probe specificity for target or for cell-based/phenotypic assays data can be determined in orthogonal cell-based assay systems that address the pathway of interest. For example, compounds were tested in Bfl-1/FITC-Bid FPA and TR-FRET assays (FIGS. 7A and 7B, respectively), as well as Bcl-2/FITC-Bim FPA (FIG. 7C) and Bcl-B/FITC-TR3-R8 FPA (FIG. 7D) assays. Data represent concentration in μM x-axis) vs % displacement (y-axis).
# [2] = target: T2, Bcl-B (Homo sapiens, UniProt Q9HD36); experiment: Bcl-B/FITC-TR3-R8 FPA selectivity assay; format: binding
# T2 construct: lacking their C-terminal transmembrane domains (approximately last 20 amino-acids); GST (N); made in house; host or cells: XL-1 Blue cells (E. coli), pGEX 4T-1
# T2 sequence (Q9HD36 1-182 limits assumed): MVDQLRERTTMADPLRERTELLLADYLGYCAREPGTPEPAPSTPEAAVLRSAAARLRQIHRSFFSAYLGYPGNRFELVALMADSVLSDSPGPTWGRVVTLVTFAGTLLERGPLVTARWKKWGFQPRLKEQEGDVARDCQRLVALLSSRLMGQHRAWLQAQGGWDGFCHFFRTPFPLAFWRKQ
# Excerpt: as §1, §2, §3
# [3] = target: T3, Bfl-1 (Homo sapiens, UniProt Q16548); experiment: Bfl-1 fluorescence polarization assay (FPA/FP), competition with FITC-Bid BH3 peptide; format: binding
# T3 construct: lacking their C-terminal transmembrane domains (approximately last 20 amino-acids); made in house; host or cells: XL-1 Blue cells (E. coli), pGEX 4T-1
# T3 sequence (Q16548 1-155 limits assumed): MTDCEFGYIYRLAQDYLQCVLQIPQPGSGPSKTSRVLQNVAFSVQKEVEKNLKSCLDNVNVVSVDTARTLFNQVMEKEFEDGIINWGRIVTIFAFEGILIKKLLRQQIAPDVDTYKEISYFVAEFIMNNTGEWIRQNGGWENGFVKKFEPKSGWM
# Method: Fluorescence polarization assays (FPA). To determine the binding affinity of anti-apoptotic Bcl-2 polypeptides to FITC-conjugated Bid BH3 peptide, fluorescence polarization assays (FPAs) were performed according to published procedures (Zhai et al., Biochem. J. 376:229-236 (2003)). […] Fluorescence polarization was measured after 10 min using an Analyst™ AD Assay Detection System (LJL Biosystem, Sunnyvale, Calif.) in phosphate-buffered saline (PBS) (pH 7.4). The IC50 determinations were performed using GraphPad Prism software (GraphPad, Inc., San Diego, Calif.).
# Competition assays. Using the same procedure outlined above, 100 nM of GST-Bfl-1 protein were incubated with the compounds at 50 μM concentration for 30 min. Then, 5 nM of FITC-Bid BH3 peptide was added. Fluorescence polarization was measured after 10 min. […]
# [4] = target: T3, Bfl-1; experiment: Bfl-1 TR-FRET assay (FITC-Bid, Tb-anti-GST antibody); format: binding
# Method: TR-FRET assay. For confirmation of FPA results, a TR-FRET assay utilizing terbium- (Tb-) labeled anti-GST antibody (Th-Ab) was developed. […] The reaction mixture was preincubated for 1 h, and TR-fluorescence (TRF) was measured on an M5 plate reader (Molecular Devices) using excitation at 340 nm and emission at […]. The measurements were averaged from 5 readings during 1 ms after an initial delay 0.1 ms. TR-FRET signal was calculated as the ratio of TR-Fluorescence at 520 nm to TR-Fluorescence at […].
# For Bfl-1 TR-FRET assays, Bfl-1 protein and FITC-Bid peptide (FITC-Ahx-[…]) (SEQ ID NO: 1) were utilized. Terbium-anti-GST antibody (Tb-anti-GST Ab) was obtained from Invitrogen (San Diego Calif.). The assay buffer contained 25 mM Bis-Tris, pH 7.0, 1 mM TCEP, and 0.005% Tween 20. The Tb-Ab buffer contained 2.5 nM Tb-anti-GST antibody in assay buffer. The Bfl-1/Th-Ab working solution contained 5 nM Bfl-1 in Th-Ab assay buffer. The solution was prepared fresh and kept on ice prior to use. The FITC-Bid working solution contained 5.6 nM FITC-Bid in assay buffer.
# For the Bfl-1 TR-FRET dose-response screening protocol, dose-response curves contained 10 concentrations of compounds obtained using 2-fold serial dilution. Compounds were serially diluted in 100% DMSO, and then diluted with water to 10% final DMSO concentration. A 4 μl aliquot of compounds in 10% DMSO was transferred into columns 3-22 of Greiner 384-well white small-volume plates. Columns 1-2 and 23-24 contained 4 μL of 10% DMSO.
# Columns 1-2 were reserved for positive controls, and 8 μL of Th-Ab buffer was added using a WellMate bulk dispenser (Matrix). An aliquot of 8 μL of Bfl-1/Th-Ab working solution was added to columns 3-24 of Greiner 384 well white plates using a WellMate bulk dispenser (Matrix). Columns 23-24 represented negative control wells. Plates were incubated for 1 h at 4° C. An 8 μL aliquot of freshly prepared FITC-Bid working solution was added to the whole plate using WellMate bulk dispenser (Matrix). Plates were incubated for 4 h at room temperature protected from direct light. Fluorescence was measured on the M5 plate reader (excitation: 340 nm, emission: 490 and 520 nm, cutoff: 475 and 515 nm, respectively) in Time Resolved (TR) mode with signal integrated for 1 ms after initial delay of 0.1 ms. TR-FRET signal was calculated as the ratio of TR-Fluorescence at 520 nm to TR-Fluorescence at 490 nm. Data analysis was performed using a sigmoidal dose-response equation through non-linear regression.
# [5] = system: RS11846 B-lymphoma cell line; experiment: Induction of apoptosis, Annexin-FITC/PI flow cytometry; format: cell-based, human; details: 16 hours incubation
# Excerpt: To test compounds for their ability to induce apoptosis in cancer cells, the RS11846 B-lymphoma cell line was used. The RS11846 cell line was established from a patient with an aggressive form of diffuse large cell lymphoma, representing a subset of B-lymphoma in humans. This type of human B-lymphoma is characterized by infiltration beyond lymphoid compartment (bone marrow, spleen, lymph nodes, liver and etc.), typically infiltrate into ovary (in female), testis (in male), spinal cord and CNS (central nervous system) therefore given nomenclature of “diffuse.” Histo-pathologically, the RS11846 cell line is diffuse large cell B-lymphoma, thus representing an immature, aggressive form of the disease. […] Therefore, this cell line is suitable for examining biological effects of Bfl-1 antagonists concerned in this patent application.
# For the assay to test compounds for their ability to induce apoptosis, the RS11846 B-lymphoma cell line was cultured in RPMI-1640 supplemented by 10% FBS and Penicillin/Streptomycin. The cells were seeded at cell density of half a million cells per ml, and incubation time was 16 hours. In the assay, cell viability was analyzed by the Annexin-FITC/PI method, using flow cytometry, or FACS analysis. Viable cells were defined by Annexin-FITC-negative, PI-negative. Compensation was done using conventional methods and using the Flo-jo program.
# IC50 (50% killing) was determined using an extrapolation method based on the finding that biological response is almost linear near at 50% inhibition point when plotted against semi-log scale on X-axis. See, D. J. Finney, Statistical Method in Biological Assay, Griffin, London, 1978. Briefly, % viability was plotted on Y-axis on an ordinary scale, while drug concentration was plotted on X-axis on a semi-log scale. The actual 50% inhibition point is on the line between left-bracket (higher than 50% inhibition) and right bracket (lower than 50% inhibition), and it can be extrapolated on the line on a semi-log scale. Thus, IC50 was extrapolated via left bracketing and right bracketing, and extrapolated on a semi-log scale, and then, re-converted back to an ordinary scale.
# [6] = system: anti-apoptotic members of the Bcl-2-family; experiment: FPA competition assay, GST-Bcl-2 fusion proteins with FITC-Bid BH3 peptide in PBS; format: binding, human; details: 100 nM GST-fusion proteins, 5 nM FITC-Bid BH3 peptide
# Method: Bcl-2-binding compounds were tested by competition assay analysis. The green tea compound […] (EGCG) has been reported to bind Bcl-2 and Bcl-XL (Leone et al., Cancer Res 63:8118-8121 (2003)). The ability of EGCG to compete with fluorochrome-labeled BH3 peptides was confirmed by FPA. 100 nM of GST-Bcl-2 fusion proteins were incubated with various concentrations of EGCG or control compound ECG (“C”) for 2 min in PBS buffer in 50 uL. Next, 5 nM FITC-conjugated-Bid BH3 peptide was added, bringing final volume to 100 uL and final DMSO concentration to 1%. Fluorescence polarization was measured after 20 min. […] This compound therefore can serve as a positive control when performing high throughput screens of a chemical library.
# [7] = Solubility
# Method: Compounds were screened for inhibitory activity of Bfl-1 essentially as described in Example 1, and including a 1 h incubation of Bfl-1 in the presence of compounds and a 4 h incubation after the subsequent addition of the fluorescent probe. […] The assay was screened against the entire NIH small molecule library, which at the time consisted of 65,000 compounds. […] Controls included an “artifact” plate on which a GAPDH assay was performed to check selectivity, and a solubility plate on which a solubility assay was performed to test solubility.
# [8] = Tables 3-5, read-out: Bfl-1 TR FRET IC50
smiles,measurement,setting,value
"CC(C)C(C(=O)O)N1C(=O)/C(=C/c2ccc(Br)cc2)SC1=S (stereo not shown) [BH3I-1, (Z)-2-(5-(4-Bromobenzylidene)-4-oxo-2-thioxothiazolidin-3-yl)-3-methylbutanoic acid, reference compound]",IC50,[1]; read-out: Bcl-2 (FP): IC50,1.14 µM
same,IC50,[2]; read-out: Bcl-B (FP): IC50,1.08 µM
same,IC50,"[3]; conditions not stated, not the assay with 0.005% Tween 20, read-out: Bfl-1 (FP): IC50",4.65 µM
same,IC50,"[3]; in the presence of 0.005% Tween 20, read-out: IC50 in Bfl-1 FP assay",> 20 µM
"CN1CCN(C2=C(Cl)C(=O)N(c3ccc(Cl)c(Cl)c3)C2=O)CC1 [CID-1180676, 3-chloro-1-(3,4-dichlorophenyl)-4-(4-methylpiperazin-1-yl)pyrrole-2,5-dione]","Bfl-1 TR-FRET assay, activity in words",[4]; Bfl-1/FITC-Bid,submicromolar potency; also recorded: potently disrupt
same,IC50,[4]; [8],0.56 µM
same,IC50,"[4]; Tables 7-8, Avg where the cell lists several determinations, read-out: Bfl-1 TR-FRET IC50",0.479 µM
same,"Bfl-1 TR-FRET IC50 (uM), individual determinations","[4]; Tables 7-8, single values listed before the Avg",nofit
same,IC50,"[4]; Tables 7-8, single values listed before the Avg, read-out: Bfl-1 TR-FRET IC50 (uM), individual determinations",0.304 µM and 0.443 µM and 0.317 µM and 0.471 µM and 0.445 µM and 1.09 µM and 0.475 µM and 0.584 µM and 0.186 µM
same,"Competition for binding of a BH3 peptide to Bcl-2, in words",[1]; Bcl-2/FITC-Bim complex,limited activity
same,"Effect on complex of Bcl-B/FITC-TR3-R8, in words",[2],did not affect
same,"Bfl-1 FP assay, activity in words",[3]; Bfl-1/FITC-Bid,submicromolar potency; also recorded: potently disrupt
same,IC50,"[3]; Tables 3-5, read-out: Bfl-1 FP IC50",0.75 µM
same,IC50,"[3]; Tables 7-8, Avg where the cell lists several determinations, read-out: Bfl-1 FPA IC50",0.617 µM
CCOC(=O)CS(=O)(=O)c1nc(-c2ccccc2)cc(C(F)(F)F)n1 [Compound 3],induction of apoptosis,[5],induction of apoptosis
CCOC(=O)CS(=O)(=O)c1nc(-c2ccc(F)cc2)cc(C(F)(F)F)n1 [Compound 9],induction of apoptosis,[5],induction of apoptosis
COc1ccc(-c2cc(N)n(S(=O)(=O)c3c(F)c(F)c(F)c(F)c3F)n2)cc1OC [Compound 10],induction of apoptosis,[5],induction of apoptosis
COc1ccc(-c2cc(C(F)(F)F)nc(S(C)(=O)=O)n2)cc1OC [Compound 11],induction of apoptosis,[5],induction of apoptosis
"O=C(O[C@@H]1Cc2c(O)cc(O)cc2O[C@@H]1c1cc(O)c(O)c(O)c1)c1cc(O)c(O)c(O)c1 [ECGC, epigallecatechin]",binding to anti-apoptotic Bcl-2-family members,[6],binds to all six anti-apoptotic members of the Bcl-2-family
O=C1C(Cl)=C(N2CCN(CCOCCO)CC2)C(=O)N1c1ccc(Cl)c(Cl)c1 [MLS-0090861],IC50,[4]; [8],0.42 µM
same,aqueous solubility compared with CID-1180676,[7],enhanced aqueous solubility
same,IC50,"[3]; text b268, assay not stated (equals FP value of Table 5), read-out: IC50",0.47 µM
